According to US9273058B2 (BRISTOL-MYERS SQUIBB COMPANY, priority 2013, dated 2016):
Read-outs that look alike come from different tables or passages of the source.

Tests used:
CK1ε = CK1ε (Homo sapiens, UniProt P49674); test: CK1ε kinase assay (Caliper LabChip electrophoretic separation of fluoresceinated peptide substrate and product); assay type: biochemical; settings: 200 pM CK1ε, 50 μM ATP, 1.5 μM peptide, 22 hours at room temperature
How it was run: (§1)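 Each reaction was incubated 22 hours at room temperature and terminated with EDTA. Read-out was microfluidic electrophoretic separation of fluoresceinated substrate and phospho-product.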

CK1δ = CK1δ (Homo sapiens, UniProt P48730); test: CK1δ kinase assay (Caliper LabChip electrophoretic separation of fluoresceinated peptide substrate and product); assay type: biochemical; settings: 200 pM CK1δ, 50 μM ATP, 1.5 μM peptide, 22 hours at room temperature
Chain of CK1δ (P48730 whole entry): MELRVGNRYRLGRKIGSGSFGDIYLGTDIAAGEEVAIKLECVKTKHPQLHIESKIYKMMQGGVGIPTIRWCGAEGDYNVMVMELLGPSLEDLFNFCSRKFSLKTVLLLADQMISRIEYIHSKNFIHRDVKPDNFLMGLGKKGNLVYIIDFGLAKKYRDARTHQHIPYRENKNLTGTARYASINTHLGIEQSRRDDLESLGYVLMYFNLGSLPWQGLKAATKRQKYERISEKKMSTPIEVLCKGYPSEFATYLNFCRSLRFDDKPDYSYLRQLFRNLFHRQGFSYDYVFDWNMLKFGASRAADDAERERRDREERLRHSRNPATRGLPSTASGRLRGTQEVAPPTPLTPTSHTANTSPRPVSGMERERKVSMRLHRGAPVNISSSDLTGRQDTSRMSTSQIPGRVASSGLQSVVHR
How it was run: as §1

Chain of CK1ε (P49674 whole entry): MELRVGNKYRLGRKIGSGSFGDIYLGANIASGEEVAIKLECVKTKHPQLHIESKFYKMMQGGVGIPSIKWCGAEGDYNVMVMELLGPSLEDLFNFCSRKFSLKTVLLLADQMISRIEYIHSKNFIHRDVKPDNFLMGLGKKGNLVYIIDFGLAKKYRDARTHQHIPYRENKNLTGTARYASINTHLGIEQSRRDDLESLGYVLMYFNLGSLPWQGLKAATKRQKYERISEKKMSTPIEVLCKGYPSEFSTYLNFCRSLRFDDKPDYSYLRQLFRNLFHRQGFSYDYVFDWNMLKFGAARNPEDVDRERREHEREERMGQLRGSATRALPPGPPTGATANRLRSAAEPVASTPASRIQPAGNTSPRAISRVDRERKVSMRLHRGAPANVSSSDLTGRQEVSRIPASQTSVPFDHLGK

Compound | IC50 (CK1ε; read-out: CK1ε IC50 range) [nM] | IC50 (CK1δ; read-out: CK1δ IC50 range) [nM] | IC50 (CK1ε; read-out: CK1ε) [nM] | IC50 (CK1δ; read-out: CK1δ) [nM]
NC(=O)c1c(-c2cccc(F)c2)nn2c1CN(C(=O)Nc1ccc(F)cc1F)CC2 [Compound 30, N^5-(2,4-Difluorophenyl)-2-(3-fluorophenyl)-6,7-dihydropyrazolo[1,5-a]pyrazine-3,5(4H)-dicarboxamide] | 10 to 100 | 10 to 100 | – | –
NC(=O)c1c(-c2cccc(F)c2)nn2c1CN(C(=O)Nc1ccc(Cl)cc1C(F)(F)F)CC2 [Compound 57, N^5-(4-Chloro-2-(trifluoromethyl)phenyl)-2-(3-fluorophenyl)-6,7-dihydropyrazolo[1,5-a]pyrazine-3,5(4H)-dicarboxamide] | 100 to 2000 | 10 to 100 | – | –
CS[C@H]1C[C@@H](NC(=O)N2CCn3nc(-c4cccc(Cl)c4)c(C(N)=O)c3C2)C1 [Compound 270, 2-(3-Chlorophenyl)-N^5-((1s,3s)-3-(methylthio)cyclobutyl)-6,7-dihydropyrazolo[1,5-a] pyrazine-3,5(4H)-dicarboxamide] | 0.01 to 10 | 0.01 to 10 | – | –
CC1Cn2nc(-c3ccc(F)c(Cl)c3)c(C(N)=O)c2CN1C(=O)NC1CC(F)(F)C1 (single isomer, unassigned) [Compound 342, 2-(3-Chloro-4-fluorophenyl)-N^5-(3,3-difluorocyclobutyl)-6-methyl-6,7-dihydropyrazolo[1,5-a]pyrazine-3,5(4H)-dicarboxamide] | 10 to 100 | 10 to 100 | – | –
N#CC1(NC(=O)N2CCn3nc(-c4ccc(F)c(Cl)c4)c(C(N)=O)c3C2)CCOC1 (stereo not shown) [Compound 334, 2-(3-Chloro-4-fluorophenyl)-N^5-(3-cyanotetrahydrofuran-3-yl)-6,7-dihydropyrazolo[1,5-a]pyrazine-3,5(4H)-dicarboxamide] | 0.01 to 10 | 0.01 to 10 | – | –
NC(=O)c1c(-c2cccc(Cl)c2)nn2c1CN(C(=O)N[C@@H]1C[C@@H]3[C@H](C1)C3(F)F)CC2 [Compound 183, 2-(3-Chlorophenyl)-N^5-((1R,3s,5S)-6,6-difluorobicyclo[3.1.0]hexan-3-yl)-6,7-dihydropyrazolo[1,5-a]pyrazine-3,5(4H)-dicarboxamide] | 0.01 to 10 | 0.01 to 10 | – | –
CC(C)(NC(=O)N1CCn2nc(-c3ccc(F)c(Cl)c3)c(C(N)=O)c2C1)C(=O)NC1CC1 [Compound 213, 2-(3-Chloro-4-fluorophenyl)-N^5-(1-(cyclopropylamino)-2-methyl-1-oxopropan-2-yl)-6,7-dihydropyrazolo[1,5-a]pyrazine-3,5(4H)-dicarboxamide] | 10 to 100 | 10 to 100 | – | –
CC1Cn2nc(-c3ccc(F)c(Cl)c3)c(C(N)=O)c2CN1C(=O)NC1CC(F)(F)C1 (single isomer, unassigned) [Compound 343, 2-(3-Chloro-4-fluorophenyl)-N^5-(3,3-difluorocyclobutyl)-6-methyl-6,7-dihydropyrazolo[1,5-a]pyrazine-3,5(4H)-dicarboxamide] | 0.01 to 10 | 0.01 to 10 | – | –
CC(C)(C)NC(=O)N1CCn2nc(-c3ccccc3)c(C(N)=O)c2C1 [Compound 116, N^5-(tert-Butyl)-2-phenyl-6,7-dihydropyrazolo[1,5-a] pyrazine-3,5(4H)-dicarboxamide] | 10 to 100 | 10 to 100 | 79.8 | 18.2
NC(=O)c1c(-c2ccc(F)c(Cl)c2)nn2c1CN(C(=O)NC1CC(F)(F)C1)[C@@H]1COC[C@@H]12 [Compound 353, (5aS,8aR)-2-(3-Chloro-4-fluorophenyl)-N^5-(3,3-difluorocyclobutyl)-5a,6,8,8a-tetrahydrofuro[3,4-e]pyrazolo [1,5-c]pyrazine-3,5(4H)-dicarboxamide] | 0.01 to 10 | 0.01 to 10 | – | –
CC(C)(C)NC(=O)N1CCn2nc(-c3ccsc3)c(C(N)=O)c2C1 [Compound 121, N^5-(tert-Butyl)-2-(thiophen-3-yl)-6,7-dihydropyrazolo[1,5-a]pyrazine-3,5(4H)-dicarboxamide] | 100 to 2000 | 10 to 100 | – | –
NC(=O)c1c(-c2ccc(F)c(Cl)c2)nn2c1CN(C(=O)NCC1CC(F)(F)C1)CC2 [Compound 193, 2-(3-Chloro-4-fluorophenyl)-N^5-((3,3-difluorocyclobutyl)methyl)-6,7-dihydropyrazolo[1,5-a] pyrazine-3,5(4H)-dicarboxamide] | 0.01 to 10 | 0.01 to 10 | – | –
NC(=O)c1c(-c2cccc(F)c2)nn2c1CN(C(=O)Nc1cc(F)ccc1F)CC2 [Compound 26, N^5-(2,5-Difluorophenyl)-2-(3-fluorophenyl)-6,7-dihydropyrazolo[1,5-a]pyrazine-3,5(4H)-dicarboxamide] | 10 to 100 | 10 to 100 | – | –
NC(=O)c1c(-c2ccc(F)c(Cl)c2)nn2c1CN(C(=O)N[C@H]1C[C@H](OC(F)(F)F)C1)CC2 [Compound 264, 2-(3-Chloro-4-fluorophenyl)-N^5-((1r,3r)-3-(trifluoromethoxy)cyclobutyl)-6,7-dihydropyrazolo[1,5-a]pyrazine-3,5(4H)-dicarboxamide] | 0.01 to 10 | 0.01 to 10 | – | –
NC(=O)c1c(-c2cccc(F)c2)nn2c1CN(C(=O)NC1CCC(F)(F)CC1)CC2 [Compound 12, N^5-(4,4-Difluorocyclohexyl)-2-(3-fluorophenyl)-6,7-dihydropyrazolo[1,5-a]pyrazine-3,5(4H)-dicarboxamide] | 100 to 2000 | 10 to 100 | – | –
NC(=O)c1c(-c2cccc(Cl)c2)nn2c1CN(C(=O)NC1(COC(F)F)CCC1)CC2 [Compound 225, 2-(3-Chlorophenyl)-N^5-(1-((difluoromethoxy)methyl)cyclobutyl)-6,7-dihydropyrazolo[1,5-a] pyrazine-3,5(4H)-dicarboxamide] | 0.01 to 10 | 0.01 to 10 | – | –
NC(=O)c1c(-c2cccc(Cl)c2)nn2c1CN(C(=O)Nc1ccc(C(F)(F)F)cc1)CC2 [Compound 168, 2-(3-Chlorophenyl)-N^5-(4-(trifluoromethyl)phenyl)-6,7-dihydropyrazolo[1,5-a]pyrazine-3,5(4H)-dicarboxamide] | 0.01 to 10 | 0.01 to 10 | – | –

Results, then the compound that gave them:

IC50 (CK1ε; read-out: CK1ε IC50 range) [nM] | IC50 (CK1δ; read-out: CK1δ IC50 range) [nM] | IC50 (CK1ε; read-out: CK1ε) [nM] | IC50 (CK1δ; read-out: CK1δ) [nM] | Compound
0.01 to 10 | 0.01 to 10 | – | – | CC(C)(C)NC(=O)N1Cc2c(C(N)=O)c(-c3ccc(F)c(Cl)c3)nn2C(CF)(CF)C1 [Compound A136]
0.01 to 10 | 0.01 to 10 | – | – | NC(=O)c1c(-c2ccc(F)c(Cl)c2)nn2c1CN(C(=O)NC1CC3(CC3)C1)CC2 [Compound 195, 2-(3-Chloro-4-fluorophenyl)-N^5-(spiro [2.3]hexan-5-yl)-6,7-dihydropyrazolo[1,5-a] pyrazine-3,5(4H)-dicarboxamide]
0.01 to 10 | 0.01 to 10 | – | – | CC(C)(C)NC(=O)N1Cc2c(C(N)=O)c(-c3cccc(F)c3)nn2C(CF)C1 (single isomer, unassigned) [Compound A107, N^5-(tert-Butyl)-7-(fluoromethyl)-2-(3-fluorophenyl)-6,7-dihydropyrazolo[1,5-a]pyrazine-3,5(4H)-dicarboxamide]
10 to 100 | 100 to 2000 | – | – | CC(C)(C)NC(=O)N1Cc2c(C(N)=O)c(-c3ccc(F)c(Cl)c3)nn2C(C(=O)NC2CC2)C1 (stereo not shown) [Compound A23, N^5-(tert-Butyl)-2-(3-chloro-4-fluorophenyl)-N^7-cyclopropyl-6,7-dihydropyrazolo[1,5-a]pyrazine-3,5,7(4H)-tricarboxamide]
0.01 to 10 | 0.01 to 10 | – | – | NC(=O)c1c(-c2cccc(Cl)c2)nn2c1CN(C(=O)NC13CCC(C(F)F)(CC1)CC3)CC2 [Compound A77, 2-(3-Chlorophenyl)-N^5-(4-(difluoromethyl)bicyclo[2.2.2]octan-1-yl)-6,7-dihydropyrazolo[1,5-a]pyrazine-3,5(4H)-dicarboxamide]
0.01 to 10 | 0.01 to 10 | – | – | CC(C)(C)NC(=O)N1Cc2c(C(N)=O)c(-c3ccc(F)c(Cl)c3)nn2C(COC(F)F)C1 (stereo not shown) [Compound A22, N^5-(tert-Butyl)-2-(3-chloro-4-fluorophenyl)-7-((difluoromethoxy)methyl)-6,7-dihydropyrazolo[1,5-a]pyrazine-3,5(4H)-dicarboxamide]
0.01 to 10 | 10 to 100 | – | – | COCCC1CN(C(=O)NC(C)(C)C)Cc2c(C(N)=O)c(-c3ccc(F)c(Cl)c3)nn21 (single isomer, unassigned) [Compound A100, N^5-(tert-Butyl)-2-(3-chloro-4-fluorophenyl)-7-(2-methoxyethyl)-6,7-dihydropyrazolo[1,5-a]pyrazine-3,5(4H)-dicarboxamide]
0.01 to 10 | 0.01 to 10 | – | – | NC(=O)c1c(-c2ccc(F)c(Cl)c2)nn2c1CN(C(=O)NC13CCCC(CCC1)C3)CC2 [Compound A64, N^5-((1r,5r)-Bicyclo[3.3.1]nonan-1-yl)-2-(3-chloro-4-fluorophenyl)-6,7-dihydropyrazolo[1,5-a]pyrazine-3,5(4H)-dicarboxamide]
0.01 to 10 | 0.01 to 10 | – | – | N#CC12C3C4C1C1C2C3C41NC(=O)N1CCn2nc(-c3cccc(Cl)c3)c(C(N)=O)c2C1 (stereo not shown) [Compound A87, N^5-(4-Cyanocuban-1-yl)-2-(3-chlorophenyl)-6,7-dihydropyrazolo[1,5-a]pyrazine-3,5(4H)-dicarboxamide]
0.01 to 10 | 0.01 to 10 | – | – | CC(C)(O)[C@H]1CN(C(=O)NC2CC(F)(F)C2)Cc2c(C(N)=O)c(-c3ccc(F)c(Cl)c3)nn21 [Compound A20, (R)-2-(3-Chloro-4-fluorophenyl)-N^5-(3,3 difluorocyclobutyl)-7-(2-hydroxypropan-2-yl)-6,7-dihydropyrazolo[1,5-a] pyrazine-3,5(4H)-dicarboxamide]
0.01 to 10 | 0.01 to 10 | – | – | NC(=O)c1c(-c2ccc(Cl)c(Cl)c2)nn2c1CN(C(=O)NC1CC(F)(F)C1)C[C@H]2CF [Compound A29, (S)-2-(3,4-dichlorophenyl)-N^5-(3,3-difluorocyclobutyl)-7-(fluoromethyl)-6,7-dihydropyrazolo[1,5-a] pyrazine-3,5(4H)-dicarboxamide]
